# Assay results reported in US8703483B2, “Reagents and methods for using human embryonic stem cells to evaluate toxicity of pharmaceutical compounds and other chemicals” (Wisconsin Alumni Research Foundation, priority 2006, dated 2014).
# System: human embryonic stem cells
# Experiment: Metabolite profiling (LC/ESI-TOF mass spectrometry) of extracellular media of hESCs treated with alcohol
# Type: cell-based
# Settings: ETOH 0.1; 4 D
# Description: Binned masses were annotated in silico by querying the neutral masses in several different databases. These databases included Metlin, Biological Magnetic Resonance Data Bank (BMRB), NIST Chemistry WebBook, and the Human Metabolome Database. A mass was considered identified when its neutral mass was within 10 ppm of a known compound annotated in one of the databases listed above.
compound,measurement,value
CCO [ETOH],"Fold: 2-Oxo-4-methylthiobutanoic acid, mass 148.016, RT 52.88652",−2.444 fold
same,"Fold: 3-(2,5-Dimethoxy phenylpropionic acid, mass 210.0922, RT 36.18938)",1.864 fold
same,"Fold: (+)-Eudesmin, mass 386.1724, RT 51.65871",5.309 fold
same,"Fold: (+/−)-2-(4′-Isobutylphenyl)propionitrile, mass 187.1348, RT 46.31086",2.329 fold
same,"Fold: Acetylcarnitine / L-Glutamic acid n-butyl ester, mass 203.1138, RT 9.675726",−1.707 fold
same,"Fold: Benzenemethanol, 2-(2-aminopropoxy)-3-methyl- / a-[1-(ethylamino)ethyl]-p-hydroxy-Benzyl alcohol, mass 195.124, RT 31.19917",−2.225 fold
same,"Fold: Benzenemethanol, 2-(2-aminopropoxy)-3-methyl- / a-[1-(ethylamino)ethyl]-p-hydroxy-Benzyl alcohol, mass 195.1253, RT 38.99212",2.159 fold
same,"Fold: Homogentisic acid / Vanillic acid, mass 168.0434, RT 19.18355",−1.468 fold
same,"Fold: L-Oleandrosyl-oleandolide, mass 530.314, RT 23.87065",1.965 fold
same,"Fold: L-Urobilinogen;, mass 596.3543, RT 25.14927",1.396 fold
same,"Fold: N-Methyl-2-pyrrolidinone, mass 99.0689, RT 15.48433",1.434 fold
same,"Fold: Neu5Acalpha2-3Galbeta1-4Glcbeta-Sp / Neu5Acalpha2-6Galbeta1-4Glcbeta-Sp, mass 702.2497, RT 40.84822",−2.769 fold
same,"Fold: Pantothenol / dimethylbutanamide;, mass 205.1304, RT 6.747279",−1.2578 fold
same,"Fold: Phenanthrene-9,10-oxide, mass 194.073, RT 5.935143",−1.389 fold
same,"Fold: Unknown, mass 99.1043, RT 52.01225",2.703 fold
same,"Fold: Unknown, mass 120.2112, RT 13.40565",4.847 fold
same,"Fold: Unknown, mass 131.076, RT 14.35336",3.629 fold
same,"Fold: Unknown, mass 197.1769, RT 48.37093",−3.119 fold
same,"Fold: Unknown, mass 243.1089, RT 17.7027",−2.181 fold
same,"Fold: Unknown, mass 268.2487, RT 42.3656",−1.55 fold
same,"Fold: Unknown, mass 272.16, RT 43.99398",2.187 fold
same,"Fold: Unknown, mass 292.1862, RT 37.97297",2.239 fold
same,"Fold: Unknown, mass 293.9773, RT 4.014175",1.939 fold
same,"Fold: Unknown, mass 295.1521, RT 8.967061",1.513 fold
same,"Fold: Unknown, mass 298.174, RT 50.75387",−3.002 fold
same,"Fold: Unknown, mass 300.1147, RT 18.88505",2.686 fold
same,"Fold: Unknown, mass 301.1345, RT 7.719471",6.649 fold
same,"Fold: Unknown, mass 312.1341, RT 15.22357",−2.015 fold
same,"Fold: Unknown, mass 315.6732, RT 26.51229",2.015 fold
same,"Fold: Unknown, mass 325.2711, RT 18.82373",−1.756 fold
same,"Fold: Unknown, mass 325.2714, RT 20.94557",−2.074 fold
same,"Fold: Unknown, mass 353.2765, RT 3.85935",2.622 fold
same,"Fold: Unknown, mass 357.1781, RT 25.16993",2.217 fold
same,"Fold: Unknown, mass 359.1532, RT 24.01428",1.536 fold
same,"Fold: Unknown, mass 360.1321, RT 18.50245",2.11 fold
same,"Fold: Unknown, mass 362.2787, RT 83.72506",2.916 fold
same,"Fold: Unknown, mass 368.2122, RT 27.98054",1.695 fold
same,"Fold: Unknown, mass 379.1771, RT 20.76168",1.54 fold
same,"Fold: Unknown, mass 383.1721, RT 15.20829",1.915 fold
same,"Fold: Unknown, mass 384.2127, RT 23.38956",−2.556 fold
same,"Fold: Unknown, mass 387.0812, RT 19.97914",−1.977 fold
same,"Fold: Unknown, mass 388.2349, RT 46.346",1.947 fold
same,"Fold: Unknown, mass 403.1978, RT 51.66325",3.116 fold
same,"Fold: Unknown, mass 405.2001, RT 30.70733",2.668 fold
same,"Fold: Unknown, mass 408.1636, RT 16.21743",1.966 fold
same,"Fold: Unknown, mass 417.2338, RT 33.09057",2.033 fold
same,"Fold: Unknown, mass 417.2386, RT 21.14975",−1.98 fold
same,"Fold: Unknown, mass 420.1862, RT 26.77212",3.283 fold
same,"Fold: Unknown, mass 429.2533, RT 18.03482",−1.808 fold
same,"Fold: Unknown, mass 429.2535, RT 30.24237",1.805 fold
same,"Fold: Unknown, mass 431.2501, RT 35.58196",1.532 fold
same,"Fold: Unknown, mass 440.0223, RT 4.808947",−1.528 fold
same,"Fold: Unknown, mass 443.2381, RT 24.13915",2.986 fold
same,"Fold: Unknown, mass 443.3216, RT 67.0705",1.752 fold
same,"Fold: Unknown, mass 444.2237, RT 51.58546",2.131 fold
same,"Fold: Unknown, mass 460.9391, RT 33.51823",−4.518 fold
same,"Fold: Unknown, mass 467.3804, RT 46.51446",2.068 fold
same,"Fold: Unknown, mass 468.2002, RT 51.6158",1.875 fold
same,"Fold: Unknown, mass 471.7804, RT 30.72707",−2.836 fold
same,"Fold: Unknown, mass 478.2761, RT 30.28867",1.699 fold
same,"Fold: Unknown, mass 487.3472, RT 66.73744",2.931 fold
same,"Fold: Unknown, mass 489.2127, RT 21.72729",−1.51 fold
same,"Fold: Unknown, mass 510.8202, RT 31.22083",2.488 fold
same,"Fold: Unknown, mass 525.3161, RT 34.57864",1.551 fold
same,"Fold: Unknown, mass 526.2773, RT 51.73057",3.446 fold
same,"Fold: Unknown, mass 531.2876, RT 32.50661",2.106 fold
same,"Fold: Unknown, mass 531.3191, RT 35.58454",−1.252 fold
same,"Fold: Unknown, mass 531.3736, RT 66.31491",3.863 fold
same,"Fold: Unknown, mass 541.3274, RT 32.24719",2.162 fold
same,"Fold: Unknown, mass 545.3029, RT 17.6573",−1.395 fold
same,"Fold: Unknown, mass 554.8471, RT 31.891",2.038 fold
same,"Fold: Unknown, mass 555.2406, RT 15.78741",1.835 fold
same,"Fold: Unknown, mass 555.8505, RT 5.742094",−1.289 fold
same,"Fold: Unknown, mass 556.3971, RT 88.02533",−3.118 fold
same,"Fold: Unknown, mass 559.8329, RT 31.97996",−1.7213 fold
same,"Fold: Unknown, mass 574.3397, RT 24.7039",1.584 fold
same,"Fold: Unknown, mass 574.3427, RT 31.71105",1.75 fold
same,"Fold: Unknown, mass 576.096, RT 47.90467",1.361 fold
same,"Fold: Unknown, mass 589.6938, RT 35.26918",1.82 fold
same,"Fold: Unknown, mass 591.3789, RT 31.54325",1.578 fold
same,"Fold: Unknown, mass 603.3535, RT 32.67372",−2.63 fold
same,"Fold: Unknown, mass 619.3409, RT 33.68866",1.857 fold
same,"Fold: Unknown, mass 620.8861, RT 32.73907",2.249 fold
same,"Fold: Unknown, mass 635.4065, RT 32.08734",1.393 fold
